As usually defined, the IC50 is the concentration that gives 50% inhibition. The low end stands for inhibition by little substance, the high end for a need for much substance.

Our source for the IC50 values is patent publication US9884063B2, “Amido-substituted azole compounds” (Bayer Pharma Aktiengesellschaft, priority 2014, dated 2018).

Assay [1] concerns HEK293 FOP control reporter cell line. In words: HEK293 FOP Assay (FOP control vector luciferase reporter). It counts as cell-based. Conditions: Homo sapiens; HEK293 FOP control reporter cell line, 16 hours incubation, compound dilution series 50 μM to 15 nM. The gist of the method:
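Stable HEK293 line carrying the FOP vector (randomized, non-functional TCF sites; Geneticin-selected) was run in parallel with the TOP line. Cells were plated 24 h ahead at 10000/well and given recombinant human Wnt-3a at 2500–5 ng/ml. Compounds were tested at 50 μM–15 nM (3.16-fold steps) in CAFTY buffer, pH 7.4, with 2 mM Ca2+ and 0.01% BSA.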

The test system of assay [2] is wildtype Wnt signaling cascade. Briefly: HEK293 TOP Assay (Super TopFlash luciferase reporter, Wnt-3a stimulated). It counts as cell-based. Conditions: Homo sapiens, HEK293, 16 h, HEK293 TOP reporter cell line, Wnt-3a at EC50, 16 hours incubation, compound dilution series 50 μM to 15 nM. The gist of the method: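 HEK293 cells stably carrying Super TopFlash (TOP) or FOP reporter, stimulated with recombinant human Wnt-3a (2500–5 ng/ml, two-fold steps). Both lines incubated in parallel with compound from 50 μM to 15 nM (3.16-fold) in CAFTY buffer pH 7.4 with 2 mM Ca2+ and 0.01% BSA; selectivity judged TOP vs FOP.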
(In a reporter assay the amount or activity of a reporter protein is the signal.)

In a further assay the target is T1, TNKS2 (Homo sapiens, UniProt Q9H2K2).
T1 sequence (Q9H2K2 1-1166): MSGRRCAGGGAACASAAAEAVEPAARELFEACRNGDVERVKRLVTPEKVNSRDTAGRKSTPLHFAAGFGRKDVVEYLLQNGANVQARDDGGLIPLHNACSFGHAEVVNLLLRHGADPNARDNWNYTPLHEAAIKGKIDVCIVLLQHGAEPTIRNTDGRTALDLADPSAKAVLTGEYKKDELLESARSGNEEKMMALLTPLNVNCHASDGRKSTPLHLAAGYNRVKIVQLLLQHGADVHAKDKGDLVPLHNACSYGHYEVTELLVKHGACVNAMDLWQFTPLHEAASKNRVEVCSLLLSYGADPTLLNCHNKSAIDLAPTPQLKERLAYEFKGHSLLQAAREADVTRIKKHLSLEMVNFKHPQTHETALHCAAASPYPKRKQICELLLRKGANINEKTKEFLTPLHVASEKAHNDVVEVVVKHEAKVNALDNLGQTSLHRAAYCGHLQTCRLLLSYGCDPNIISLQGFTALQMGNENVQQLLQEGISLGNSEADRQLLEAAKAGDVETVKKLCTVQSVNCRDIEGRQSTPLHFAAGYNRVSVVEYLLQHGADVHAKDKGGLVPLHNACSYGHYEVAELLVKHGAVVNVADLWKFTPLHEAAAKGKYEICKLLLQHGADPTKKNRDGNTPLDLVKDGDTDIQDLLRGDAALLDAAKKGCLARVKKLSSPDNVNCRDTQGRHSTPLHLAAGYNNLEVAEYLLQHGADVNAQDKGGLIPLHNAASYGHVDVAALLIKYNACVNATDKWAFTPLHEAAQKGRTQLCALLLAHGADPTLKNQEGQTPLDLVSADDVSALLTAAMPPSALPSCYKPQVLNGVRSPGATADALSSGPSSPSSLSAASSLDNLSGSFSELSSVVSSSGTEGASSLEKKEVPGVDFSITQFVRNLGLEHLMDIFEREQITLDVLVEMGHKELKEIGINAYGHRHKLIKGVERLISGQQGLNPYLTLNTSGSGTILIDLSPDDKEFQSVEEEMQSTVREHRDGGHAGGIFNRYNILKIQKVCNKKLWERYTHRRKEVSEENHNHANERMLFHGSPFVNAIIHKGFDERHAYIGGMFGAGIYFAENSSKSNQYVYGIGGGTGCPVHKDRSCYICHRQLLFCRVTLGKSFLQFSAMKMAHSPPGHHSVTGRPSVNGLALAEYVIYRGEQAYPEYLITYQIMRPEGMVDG
Briefly: Modified TNKS2 Assay 3 (BPS kit #80578, biotin-NAD+, 96 well). Type of assay: biochemical. The settings on record: human TNKS2, BPS kit #80578, 96 well. The gist of the method:
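Commercial kit assay measuring TNKS2-catalysed incorporation of biotin-labelled NAD+ into a protein substrate, detected by streptavidin-HRP chemiluminescence. Run per manufacturer's protocol; IC50 is the concentration halving the normalised signal.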

Where “and” joins values, the source holds several entries; their conditions need not be identical. Equal entries are not always repeated. Where only a bound is given, the exact number is not on record here.

Regarding `CNC(=O)c1[nH]c(C(C)C)nc1C(=O)Nc1ccc(NC(=O)c2ccc(F)cc2Cl)cc1` [Example 106, N^4-{4-[(2-chloro-4-fluorobenzoyl)amino]phenyl}-2-isopropyl-N^5-methyl-1H-imidazole-4,5-dicarboxamide], the figures for the half-maximal inhibitory concentration (IC50) in assay [1] and in assay [2] were 13000 nM and 27000 nM, respectively. For `O=C(Nc1ccc(NC(=O)c2nc[nH]c2C(=O)N2CCC2)cc1)c1ccc(F)cc1Cl` [Example 142, 5-(azetidin-1-ylcarbonyl)-N-{4-[(2-chloro-4-fluorobenzoyl)amino]phenyl}-1H-imidazole-4-carboxamide], the IC50 against TNKS2 stood at 60 nM; in assay [2], 120 nM. The like results for `O=C(Nc1ccc(NC(=O)c2nc[nH]c2C(=O)NCCO)cc1)c1ccc(F)cc1Cl` [Example 132, N^4-{4-[(2-chloro-4-fluorobenzoyl)amino]phenyl}-N^5-(2-hydroxyethyl)-1H-imidazole-4,5-dicarboxamide] were, in that order, 430 nM and 140 nM. Turning to `O=C(Nc1ccc(NC(=O)c2nc[nH]c2C(=O)N2CC3(COC3)C2)cc1)c1ccc(F)cc1Cl` [Example 145, N-{4-[(2-chloro-4-fluorobenzoyl)amino]phenyl}-5-(2-oxa-6-azaspiro[3.3]hept-6-ylcarbonyl)-1H-imidazole-4-carboxamide], the IC50 against TNKS2 is over 500 nM; in assay [2], 290 nM. Taken in the same sequence, the figures for `CN(C)CCNC(=O)c1nc[nH]c1C(=O)Nc1ccc(NC(=O)c2ccc(S(C)(=O)=O)cc2Cl)cc1` [Example 54, N^5-(4-{[2-chloro-4-(methylsulfonyl)benzoyl]amino}phenyl)-N^4-[2-(dimethylamino)ethyl]-1H-imidazole-4,5-dicarboxamide] were 6 nM and 1450 nM. Taken in the same sequence, the figures for `CNCCNC(=O)c1[nH]cnc1C(=O)Nc1ccc(NC(=O)c2ccc(F)cc2Cl)cc1` [Example 287, N^4-{4-[(2-chloro-4-fluorobenzoyl)amino]phenyl}-N^5-[2-(methylamino)ethyl]-1H-imidazole-4,5-dicarboxamide] were 20 nM and 750 nM. `O=C(Nc1ccc(NC(=O)c2nc[nH]c2C(=O)NCCN2CCCC2)cc1)c1ccc(F)cc1Cl` [Example 228, N^4-{4-[(2-chloro-4-fluorobenzoyl)amino]phenyl}-N^5-[2-(pyrrolidin-1-yl)ethyl]-1H-imidazole-4,5-dicarboxamide]: the IC50 against TNKS2 is 4 nM and < 0.5 nM; in assay [2] it was 30 nM. Take `CC(C)(N)CNC(=O)c1ncoc1C(=O)Nc1ccc(NC(=O)c2ccc(F)cc2Cl)cc1` [Example 219, N^4-(2-amino-2-methylpropyl)-N^5-{4-[(2-chloro-4-fluorobenzoyl)amino]phenyl}-1,3-oxazole-4,5-dicarboxamide]: the figures for the IC50 (against TNKS2; in assay [2]) were 420 nM and 7500 nM, respectively. Taken in the same sequence, the figures for `CC(C)(N)CNC(=O)c1[nH]cnc1C(=O)Nc1ccc(NC(=O)c2ccc(F)cc2Cl)cc1` [Example 280, N^5-(2-amino-2-methylpropyl)-N^4-{4-[(2-chloro-4-fluorobenzoyl)amino]phenyl}-1H-imidazole-4,5-dicarboxamide] were 30 nM and 1050 nM.

As for `COC(=O)c1nc[nH]c1C(=O)Nc1ccc(NC(=O)c2ccc(F)cc2Cl)c(OC)c1` [Example 94, methyl 5-({4-[(2-chloro-4-fluorobenzoyl)amino]-3-methoxyphenyl}carbamoyl)-1H-imidazole-4-carboxylate], in assay [2], the IC50 amounted to 830 nM. For `COC(=O)c1nc[nH]c1C(=O)Nc1ccc(NC(=O)c2ccccc2Cl)c(C)c1` [Example 86, methyl-5-({4-[(2-chlorobenzoyl)amino]-3-methylphenyl}carbamoyl)-1H-imidazole-4-carboxylate], the IC50 was 23000 nM in assay [1] and 420 nM in assay [2]. As for `CCc1nc(C(=O)Nc2ccc(NC(=O)c3ccc(F)cc3Cl)cc2)c(C(=O)NCCN2CCCCC2)[nH]1` [Example 70, N^4-{4-[(2-chloro-4-fluorobenzoyl)amino]phenyl}-2-ethyl-N^5-[2-(piperidin-1-yl)ethyl]-1H-imidazole-4,5-dicarboxamide], the IC50 against TNKS2 was found to be 20 nM; in assay [2] it was 130 nM.

As to `CC(C)c1nc(C(=O)Nc2ccc(NC(=O)c3ccc(F)cc3Cl)cc2)c(C(=O)NCCN2CCCCC2)[nH]1` [Example 108, N^4-{4-[(2-chloro-4-fluorobenzoyl)amino]phenyl}-2-isopropyl-N^5-[2-(piperidin-1-yl)ethyl]-1H-imidazole-4,5-dicarboxamide], the results for the IC50 (against TNKS2; in assay [2]) were over 500 nM and 5000 nM, respectively. Take `CNC(=O)c1nc[nH]c1C(=O)Nc1ccc(NC(=O)c2ccc(OC)cc2Cl)cc1` [Example 246, N^5-{4-[(2-chloro-4-methoxybenzoyl)amino]phenyl}-N^4-methyl-1H-imidazole-4,5-dicarboxamide]: the IC50 at TNKS2 is 60 nM; in assay [2] it was 200 nM. Taken in the same sequence, the figures for `O=C(Nc1ccc(NC(=O)c2nc[nH]c2C(=O)NCC(F)F)cc1)c1ccc(F)cc1Cl` [Example 139, N^4-{4-[(2-chloro-4-fluorobenzoyl)amino]phenyl}-N^5-(2,2-difluoroethyl)-1H-imidazole-4,5-dicarboxamide] were 350 nM and 360 nM. Regarding `COC(=O)c1nc[nH]c1C(=O)Nc1ccc(NC(=O)c2ccccc2Cl)c(OC)c1` [Example 98, methyl 5-({4-[(2-chlorobenzoyl)amino]-3-methoxyphenyl}carbamoyl)-1H-imidazole-4-carboxylate], the midpoint of inhibition in assay [2], the IC50, lay at 1150 nM. Turning to `CNC(=O)c1nc[nH]c1C(=O)Nc1ccc(NC(=O)c2ccccc2Cl)nc1` [Example 112, N^5-{6-[(2-chlorobenzoyl)amino]pyridin-3-yl}-N^4-methyl-1H-imidazole-4,5-dicarboxamide], in assay [2], half-maximal inhibition (IC50) required 2550 nM. The same measure, in the same setting: then `COC(=O)c1nc[nH]c1C(=O)Nc1ccc(NC(=O)c2ccc(F)cc2)c(OC)c1` [Example 102, methyl 5-({4-[(4-fluorobenzoyl)amino]-3-methoxyphenyl}carbamoyl)-1H-imidazole-4-carboxylate], with 50000 nM; and `CN(C)CCNC(=O)c1nc[nH]c1C(=O)Nc1ccc(NC(=O)c2ccccc2Cl)nc1` [Example 113, N^5-{6-[(2-chlorobenzoyl)amino]pyridin-3-yl}-N^4-[2-(dimethylamino)ethyl]-1H-imidazole-4,5-dicarboxamide], with 460 nM; and `Cc1cc(NC(=O)c2[nH]cnc2C(=O)NCCN2CCCCC2)ccc1NC(=O)c1ccccc1Cl` [Example 89, N^5-{4-[(2-chlorobenzoyl)amino]-3-methylphenyl}-N^4-[2-(piperidin-1-yl)ethyl]-1H-imidazole-4,5-dicarboxamide], with 600 nM. Same read-out and setting: then `COc1cc(NC(=O)c2[nH]cnc2C(=O)NCCN(C)C)ccc1NC(=O)c1ccc(F)cc1Cl` [Example 96, N^5-{4-[(2-chloro-4-fluorobenzoyl)amino]-3-methoxyphenyl}-N^4-[2-(dimethylamino)ethyl]-1H-imidazole-4,5-dicarboxamide], with 310 nM; and `COc1cc(NC(=O)c2[nH]cnc2C(=O)NCCN(C)C)ccc1NC(=O)c1ccccc1Cl` [Example 100, N^5-{4-[(2-chlorobenzoyl)amino]-3-methoxyphenyl}-N^4-[2-(dimethylamino)ethyl]-1H-imidazole-4,5-dicarboxamide], with 790 nM.
